Experimental data from patent US11369657B2, “Small molecule polypeptide for preventing and restraining inflammation and application of same” (SHANGHAI FIRST PEOPLE'S HOSPITAL, priority 2011, dated 2022).
“Also recorded” adds a separate entry of the source. Peptide text beside a SMILES is read from it.

What was measured:
ocular inflammation = experiment: Inhibiting effect of derived polypeptides on ocular inflammation according to Examples 2-3
Experimental: (§1) Derived Polypeptides were prepared as follows. Polypeptides were prepared according to the method in Example 1, and the inhibiting effect of the polypeptides on ocular inflammation was determined according to Examples 2-3.

uveitis in rats = experiment: LPS-induced uveitis in rats, intravitreal injection of polypeptide; type: in vivo, rat; conditions: for protein concentration in rat aqueous humor / exuded cells count in rat anterior chamber / aqueous humor: 24 hours after LPS injection, vs LPS+PBS group; for protein concentration in rat aqueous humor: BCA method, LS22 intravitreally; for exuded cells count in rat anterior chamber / aqueous humor: LS22 10, 50 or 100 μg intravitreally
Experimental: 8-week old male wistar rats were randomly divided into 5 groups with 10 rats for each, which are blank+PBS, LPS+PBS group, LPS+LS22 10 μg group, LPS+LS22 50 μg group, LPS+LS 22 100 μg group. 0.15 ml of pentobarbital (5.47 g/100 ml normal saline) was intraperitoneally injected into the rats for anesthesia. 100 μl of LPS (2 μg/μl) was subcutaneously injected into the right hindpaw of rats both in treating group and positive control group. An equal volume of normal saline was injected into the same position of the rats in blank+PBS group. 5% tropicamide and 1% tetracaine was dropped on the eye for mydriasis and local anesthesia. Under operating microscope, 10 μl of polypeptide or PBS of equal volume was intravitreally injected of bilateral eyes. The pars plana was vertically punctured by a 29-gauge microsyringe at 1 mm from corneal limbus and the vitreous cavity was reached. The drug liquid was then injected into the center of the vitreous cavity under direct vision and the needle was pulled out quickly after remaining for a few seconds. All above steps were conducted aseptically.
24 hours after LPS was injected, 6 rats in each experimental group were subjected to anterior chamber puncture by 30 G needle under deep anesthesia, and then bilateral aqueous humor was collected. Other 4 rats were sacrificed by cervical dislocation and the eyeballs were taken and immobilized.
The aqueous humor sample was diluted to 1:5 by trypan blue and then added into hemocytometer for manual counting under optical microscope, and total protein concentration was determined by BCA method.
The eyeballs were taken and immobilized by neutral formaldehyde (10%) and stored at 4° C. The sample was embedded into paraffin, cut into sagittal slices with the thickness of 5 μm, and then subjected to HE staining. The iris and ciliary body, anterior chamber, vitreous body and retina of the eyeballs were observed under optical microscope. The exuded cells in anterior chamber and vitreous cavity were counted by the same pathologist.
The experiment date was shown as x±s. A one-way ANOVA was used to compare the exuded cells and total protein concentration between these groups, and P<0.05 represents statistical significance.

RAW264.7 cells = experiment: Cell viability assay (MTS); type: cell-based, mouse; conditions: RAW264.7 cells co-incubated 24 hours
Experimental: RAW264.7 cells were placed into a 96-well plate for 24-hour adherent culture, and then peptides with different concentrations were added into each well and co-cultured for another 24 hours, while no treatment was taken to the control group. 20 μl of MTS solution was added into each well after 24 hours and cultured for another 3 hours. The culture plate was taken to determine the absorbance of each well at 490 nm.
(§2) The experiment date was shown as x±s. A SPSS 11.0 statistical package was used for statistic analysis and a one-way ANOVA was used to compare RAW264.7 cell viability results, TNF-α and IL-6 level between the groups, and P<0.05 represents statistical significance.

TNF-α = TNF-α level in supernatant of LPS-stimulated RAW264.7 cells (ELISA); type: cell-based, mouse; conditions: 0.1-10 μM LS22 pretreatment 30 min, LPS 100 ng/mL 24 hours
Experimental: (§3) Mouse RAW264.7 cells were inoculated on the 24-well cell culture plate (400 μl/well). RAW264.7 was pretreated with 0.1-10 μM of LS22 for 30 min, and then LPS (100 ng/mL) was added and co-incubated for 24 hours. Cell supernatant in each well was collected and TNF-α and IL-6 level was determined by ELISA kits.
as §2, §1

IL-6 = IL-6 level in supernatant of LPS-stimulated RAW264.7 cells (ELISA); type: cell-based, mouse; conditions: 0.1-10 μM LS22 pretreatment 30 min, LPS 100 ng/mL 24 hours
Experimental: as §3, §2, §1

[1] = Water solubility of the synthesized powder; type: physicochemical; conditions: white powder
Experimental: 7. 120 mg of polypeptide LS22 was obtained as white powder with good water solubility (purification >95%) and then sealed and stored for use at −20° C.

| water solubility [1] | Compound | anti-inflammation effect (ocular inflammation; derived polypeptides, 10 μg group or 10 μM) | anti-inflammation effect compared with LS22 (ocular inflammation; weaker than LS22) | protein concentration in rat aqueous humor (uveitis in rats) | protein concentration in rat aqueous humor (uveitis in rats; listed as LSS) | exuded cells count in rat anterior chamber / aqueous humor (uveitis in rats) | exuded cells count in rat anterior chamber / aqueous humor (uveitis in rats; listed as LSS) | inflammatory cells in tissues (histopathologic examination) (uveitis in rats; HE staining, anterior chamber, ciliary body, posterior vitreous cavity, after LPS injection) | inhibition of uveitis (uveitis in rats; rats, LPS-induced) | toxicity to the cells (RAW264.7 cells) | cell viability compared with the control group (RAW264.7 cells; MTS) | LPS-induced TNF-α level in cell supernatant (TNF-α) | LPS-induced IL-6 level in cell supernatant (IL-6) |
| --- | --- | --- | --- | --- | --- | --- | --- | --- | --- | --- | --- | --- | --- |
| – | Polypeptide 7: sequence as set forth by SEQ ID NO.: 5 (ALQSLNLSENGLSLDAVLGLV) | exhibits an anti-inflammation effect to some extent | about 30% | – | – | – | – | – | – | – | – | – | – |
| good | CC[C@H](C)[C@H](NC(=O)[C@H](CO)NC(=O)[C@H](CC(N)=O)NC(=O)[C@H](Cc1c[nH]cn1)NC(=O)[C@H](CO)NC(=O)[C@H](CC(C)C)NC(=O)[C@H](CC(=O)O)NC(=O)[C@@H](N)CC(C)C)C(=O)N[C@@H](CO)C(=O)N[C@@H](CCC(N)=O)C(=O)N[C@@H](CCC(=O)O)C(=O)N[C@@H](CO)C(=O)N[C@@H](C)C(=O)N[C@@H](CC(C)C)C(=O)N[C@@H](Cc1ccc(O)cc1)C(=O)N[C@@H](CC(C)C)C(=O)N[C@@H](CC(C)C)C(=O)N[C@@H](CCC(=O)O)C(=O)N[C@H](C(=O)N[C@@H](CC(C)C)C(=O)N1CCC[C@H]1C(=O)N[C@@H](CO)C(=O)O)[C@@H](C)O [LS22] (H-LDLSHNSISQESALYLLETLPS-OH; N-terminus assumed) | – | – | remarkably decreased | significantly reduced | remarkably reduced | significantly reduced | greatly reduced; also recorded: significantly reduced | significantly inhibited uveitis | no toxicity was observed | no statistically significant difference | significantly inhibited; also recorded: remarkably inhibited | significantly inhibited; also recorded: remarkably inhibited |
